Measured values published in patent US11470848B2, “Consortium of (carbamate) thiodicarb-resistant and (pyrethroid) biphenthrin-resistant bacteria and use thereof in liquid fertilizers” (priority 2018, dated 2022).
Like-named read-outs stand apart in the source and are kept apart here.

Assays:
Format in all cases: cell-based
Azotobacter vinelandii = system: Azotobacter vinelandii
Experimental: (§1) Bacteria strains, nitrifiers, phosphorus solubilizers and antagonists for pathogens: • a) Azotobacter vinelandii • b) Bacillus megaterium • c) Bacillus subtillis • d) Bacillus thuringiensis • e) Clostridium pasteuranium • f) Rhizobium Preparation for Stage Development • 1. Glass material is sterilized in an autoclave. • 2. The required amount of growth media is prepared, DFA Agar, Malt Agar (Corn Agar) and (PDA) to obtain viable colonies. • 3. Lethal dose (LD) applied to a hectare is established, for thiodicarb as well as bifenthrin. 10 Petri dishes are prepared with 0.1 LD of thiodicarb of bifenthrin. Dishes are incubated at 25° C. for 72 hours with cold light.
(§2) Methodology • a. Petri dishes are placed inside the laminar flow chamber along with the diluted samples, to seed microorganisms in the dishes, a one ml sample of the strain is taken with an automated pipette, 10^−1 and 10^−2 solutions are performed and each solution is homogenized. • b. […] Inoculated dishes are incubated for 72 hours and the bacteria growth will be recorded, the product concentration impact is determined over the plate growth (12 hours of incubation). • e. […] The colony diameter is determined using a graduated ruler, data is recorded subtracting the diameter of the seeded dish, from which the effect over the mycelial growth will be determined compared to the control (not poisoned MA, denominated as percentage of inhibition of radial growth (PIRG %). • h. Progress is recorded daily and after 7 days analysis of an acceptable coverage is performed, if not, the procedure is repeated as many times as required. • i. From the 10 Petri dishes for each microorganism, the one with the lowest mortality is the one that will continue with the following study. • j. […]
(§3) Characteristics for this procedure were recorded during all stages through the following indicators: • a. […] Percentage of inhibition measured in Number of CFU/mm • c. […]

Bacillus megaterium = assay: Stagewise adaptation on growth media with thiodicarb / bifenthrin, mortality; conditions: for Resistant to: (FINAL): after the selective process, 40 stages
Experimental: as §1
Methodology • a. Petri dishes are placed inside the laminar flow chamber along with the diluted samples, to seed microorganisms in the dishes, a one ml sample of the strain is taken with an automated pipette, 10^−1 and 10^−2 solutions are performed and each solution is homogenized. • b. Having the petri dishes with the sterile and cold growth media, it is homogenized with 6 right to left movements, 6 clockwise movements, 6 counterclockwise movements and 6 front to back movements over a flat horizontal surface until the inoculum is completely integrated into the media, stand until it solidifies and each dish is covered with parafilm to avoid contamination during incubation. • c. Dishes with thiodicarb and Bifenthrin are placed inside the incubator at 25° C. for 72 hours with a cold light lamp. • d. Inoculated dishes are incubated for 72 hours and the bacteria growth will be recorded, the product concentration impact is determined over the plate growth (12 hours of incubation). • e. The residual impact of the product is reviewed after 7 days in the malt agar and PDA agar medias. • f. […] The colony diameter is determined using a graduated ruler, data is recorded subtracting the diameter of the seeded dish, from which the effect over the mycelial growth will be determined compared to the control (not poisoned MA, denominated as percentage of inhibition of radial growth (PIRG %). • h. Progress is recorded daily and after 7 days analysis of an acceptable coverage is performed, if not, the procedure is repeated as many times as required. • i. From the 10 Petri dishes for each microorganism, the one with the lowest mortality is the one that will continue with the following study. • j. […]
as §3
(§4) For each species, stages analyzing times required to cover the entire field were performed. Once this time was determined, they were left to rest for 10 days to be later subject to the following protocol: […]

Bacillus subtillis = assay: as above; conditions: for Resistant to: (FINAL): after the adaptation process, 40 stages
Experimental: as §1
(§5) Methodology • a. Petri dishes are placed inside the laminar flow chamber along with the diluted samples, to seed microorganisms in the dishes, a one ml sample of the strain is taken with an automated pipette, 10^−1 and 10^−2 solutions are performed and each solution is homogenized. • b. Having the petri dishes with the sterile and cold growth media, it is homogenized with 6 right to left movements, 6 clockwise movements, 6 counterclockwise movements and 6 front to back movements over a flat horizontal surface until the inoculum is completely integrated into the media, stand until it solidifies and each dish is covered with parafilm to avoid contamination during incubation. • c. Dishes with thiodicarb and Bifenthrin are placed inside the incubator at 25° C. for 72 hours with a cold light lamp. • d. Inoculated dishes are incubated for 72 hours and the bacteria growth will be recorded, the product concentration impact is determined over the plate growth (12 hours of incubation). • e. The residual impact of the product is reviewed after 7 days in the malt agar and PDA agar medias. • f. If there is no growth over 10%, the process is repeated until a mortality under 90% is obtained. • g. The colony diameter is determined using a graduated ruler, data is recorded subtracting the diameter of the seeded dish, from which the effect over the mycelial growth will be determined compared to the control (not poisoned MA, denominated as percentage of inhibition of radial growth (PIRG %). • h. Progress is recorded daily and after 7 days analysis of an acceptable coverage is performed, if not, the procedure is repeated as many times as required. • i. From the 10 Petri dishes for each microorganism, the one with the lowest mortality is the one that will continue with the following study. • j. The study is performed again using this percentage until coverage increases and so on, the addition of thiodicarb and bifenthrin is alternated with the LD in intervals of 0.1 LD; all these experiments have been designed with the experimental strains and a control. • k. With the data obtained from the bacterial growth, the percentage of inhibition of gradual growth is obtained, the data is transformed for its analysis with the expression 2 arc sin. A two-way classification analysis of variance is applied and later the Turkey test is performed using a 5% probability.
(§6) Characteristics for this procedure were recorded during all stages through the following indicators: • a. Growth speed • b. Percentage of inhibition measured in Number of CFU/mm • c. Percentage of poison resistance
as §4

Bacillus thuringiensis = assay: as above; conditions: for Resistant to: (FINAL): after the adaptation process, 48 stages
Experimental: as §1, §5, §6, §4

Clostridium pasteuranium = assay: as above; conditions: for Resistant to: (FINAL): after the selective process, 40 stages
Experimental: as §1, §5, §6, §4

Rhizobium sp = assay: as above; conditions: for Resistant to: (FINAL): after the adaptation process, 40 stages
Experimental: as §1, §2, §3

[1] = bifenthrin 0.9 LD (0.00000042 gr), stages E-37 and E-38
[2] = thiodicarb 0.9 LD (0.00016 gr), stages E-33 and E-34
[3] = thiodicarb 0.2 LD (0.000035 gr), stages E-3 and E-4
[4] = thiodicarb 0.1 LD (0.0000175 gr), stage E-2

| Structure (SMILES) | mortality (Azotobacter vinelandii; bifenthrin 0.2 LD (0.00000012 gr), stages E-7 and E-8) [%] | mortality (Azotobacter vinelandii; [1]) [%] | Resistant to: (FINAL) (Bacillus megaterium) | mortality (Bacillus megaterium; bifenthrin 0.1 LD (0.00000006 gr), stages E-5 and E-6) [%] | Resistant to: (FINAL) (Bacillus subtillis) | mortality (Bacillus subtillis; bifenthrin 0.3 LD (0.00000018 gr), stages E-13 and E-14) [%] | Resistant to: (FINAL) (Bacillus thuringiensis) | Resistant to: (FINAL) (Clostridium pasteuranium) | mortality (Clostridium pasteuranium; [1]) [%] | Resistant to: (FINAL) (Rhizobium sp) | mortality (Azotobacter vinelandii; [2]) [%] | mortality (Bacillus megaterium; [3]) [%] | mortality (Bacillus subtillis; thiodicarb 0.1 LD (0.0000175 gr), stage E-1, until day 68 of incubation) [%] | mortality (Bacillus subtillis; [4]) [%] | mortality (Bacillus thuringiensis; [2]) [%] | mortality (Bacillus thuringiensis; thiodicarb 1 LD (0.00018 gr), stages E-35 and E-36) [%] | mortality (Bacillus thuringiensis; thiodicarb 1.2 LD (0.00022 gr), stages E-43 and E-44) [%] | mortality (Clostridium pasteuranium; thiodicarb 0.1 LD (0.0000175 gr), stage E-1, until incubation day 72) [%] | mortality (Clostridium pasteuranium; [4]) [%] | mortality (Rhizobium sp; [3]) [%] |
| --- | --- | --- | --- | --- | --- | --- | --- | --- | --- | --- | --- | --- | --- | --- | --- | --- | --- | --- | --- | --- |
| Cc1c(COC(=O)[C@@H]2[C@H](/C=C(\Cl)C(F)(F)F)C2(C)C)cccc1-c1ccccc1 (racemic) [bifenthrin, 2-methyl biphenyl-3-ilmetil(2)-(1RS,3RS)-3-(2-chlorine 3,3,3-trifluoropropene)-2,2-dimethyl-cyclo-propane-carboxylate] | 60 | 10 | 1 LD of thiodicarb | 63 | 1 LD of thiodicarb | 65 | 1.2 LD of thiodicarb | 1 DL of thiodicarb | 10 | 1 DL of thiodicarb | – | – | – | – | – | – | – | – | – | – |
| CS/C(C)=N\OC(=O)N(C)SN(C)C(=O)O/N=C(\C)SC [thiodicarb] | – | – | 1 LD of thiodicarb | – | 1 LD of thiodicarb | – | 1.2 LD of thiodicarb | 1 DL of thiodicarb | – | 1 DL of thiodicarb | 10 | 65 | 82 | 80 | 30 | 25 | 14 | 87 | 84 | 60 |
